Reference: paper PMC2211560 (PLoS Medicine, 2008)
Values joined by “and” are separate entries in the source; they are usually repeats but may differ in a detail not shown here. Equal entries are not always repeated. Where two headings read alike, the source gives them in different places.

Assays:
Akt = assay: PRAS40 (threonine 246) phosphorylation in tumor tissue by IHC; type: in vivo, human; details: for pPRAS 40 Induction: statistically significant increase S2 vs S1 (p < 0.05, Wilcoxon), individual patients
Excerpt: The following antibodies were used for IHC: anti-PTEN (6H2.1, #ABM-2052, Cascade BioScience; 1:400 dilution), anti-Ki-67 (MIB-1, M7240, DakoCytomation; 1:100 Dilution), anti-phospho Ser235/236 S6 (91B2, #4857, Cell Signaling; 1:50 dilution), anti phospho Ser240/244 S6 (#2215, Cell Signaling; 1:200 dilution), anti-phospho-PRAS 40 (#44–1100G, Biosource; 1:200 dilution), anti-phospho Ser473 Akt (736E11, #3787, Cell Signaling; 1:50 dilution), anti-phospho Thr389 p70 S6 Kinase (#9205, Cell Signaling; 1:100 Dilution), and anti phospho Ser1108 eIF4G at 1:400 (#2441, Cell Signaling; 1:400 dilution). Antigen retrieval was performed using 0.01 M citrate buffer, pH 6.0 for 30 min in an oven and peroxidase activity was quenched with 3% hydrogen peroxide in water. Primary antibodies were diluted in PBS /2% bovine serum albumin/2% normal horse serum (for anti-PTEN) or TBS/0.1% Tween/5% normal goat serum (for phosphosite-specific antibodies) and applied overnight at 4 °C. Biotinylated secondary antibodies (Vector) were applied at 1:200 dilution for 45 min, and the avidin-biotin complex (Elite ABC, Vector) for 30 min. Vector NovaRed was used as the enzyme substrate to visualize specific antibody localization. […] All slides were counterstained with Harris hematoxylin.
We assessed Akt activity in S1 and S2 samples in the rapamycin-treated patients using phosphosite-specific antibodies against the serine/threonine kinase Akt (serine 473) and its downstream substrate PRAS 40 (threonine 246), which serves as a biomarker for Akt activity (Figure 4A). PRAS40 has also been recently shown to inhibit mTOR, and this inhibition is relieved by Akt phosphorylation.
(§1) Scoring of immunohistochemical stains. […] Digital scores for PTEN, phospho-S6, and phospho-PRAS40 are based on absolute staining intensity of tumor cells as quantified following false-color conversion. PTEN, phospho-S6, phospho-PRAS40, and Ki-67 were scored in representative and matching areas of consecutive tissue sections (Suppl. Fig. 1), excluding areas with large vessels and/or prominent reactive changes (e.g., reactive astrogliosis or lymphocytic infiltration). […] Quantitative analysis was done using HSI color algorithm based on hue, saturation and intensity. Saturations of the separated cell in the images were quantified in the red-brown hue range to exclude the negative staining area with hematoxylin nuclear staining. To compare the staining intensity of all slides, mean saturation of total cells on each image was quantified and calculated. For Ki-67 staining scoring, separated cells were quantified with red brown hue range (positive staining) and total hue range (all cells) after cell border separation and Ki-67 labeling index was calculated based on these numbers. […]

[1] = tested on: PTEN-deficient glioblastoma; assay: Ki-67 labeling index of tumor tissue (S2 versus S1); type: in vivo, human; details: for Ki-67 Decrease: about 1 wk pre-operative, S2 vs S1, individual patients
Excerpt: To quantify mTOR activity in matched S1 and S2 samples, we measured phosphorylation of S6 ribosomal protein by immunohistochemistry using two distinct phosphosite antibodies directed against Ser235/236 or Ser240/244. […] Immunohistochemistry (IHC) scoring is described in detail in Text S1.
The following antibodies were used for IHC: anti-PTEN (6H2.1, #ABM-2052, Cascade BioScience; 1:400 dilution), anti-Ki-67 (MIB-1, M7240, DakoCytomation; 1:100 Dilution), anti-phospho Ser235/236 S6 (91B2, #4857, Cell Signaling; 1:50 dilution), anti phospho Ser240/244 S6 (#2215, Cell Signaling; 1:200 dilution), anti-phospho-PRAS 40 (#44–1100G, Biosource; 1:200 dilution), anti-phospho Ser473 Akt (736E11, #3787, Cell Signaling; 1:50 dilution), anti-phospho Thr389 p70 S6 Kinase (#9205, Cell Signaling; 1:100 Dilution), and anti phospho Ser1108 eIF4G at 1:400 (#2441, Cell Signaling; 1:400 dilution). Antigen retrieval was performed using 0.01 M citrate buffer, pH 6.0 for 30 min in an oven and peroxidase activity was quenched with 3% hydrogen peroxide in water. Primary antibodies were diluted in PBS /2% bovine serum albumin/2% normal horse serum (for anti-PTEN) or TBS/0.1% Tween/5% normal goat serum (for phosphosite-specific antibodies) and applied overnight at 4 °C. […]
as §1, with “numbers. For p-PRAS40 scoring, mean saturation of the positive staining tumor cells was quantified in the red-brown hue range, followed by multiplying the positive cell ratio in the same image to evaluate both staining intensity and staining distribution. pS473 Akt was quantified on a scale of 0-2; 0^+ = no staining, 1^+ = mild intensity cytoplasmic staining, and 2^+ = strong cytoplasmic staining.” for “numbers.”

[2] = tested on: short-term cultures derived from tumors; assay: Ex vivo rapamycin response of short-term tumor cultures (S6 immunoblot); type: cell-based, human; details: 0.3 and 3.0 nM, 8 h; rapamycin-sensitive (patients 1 and 3) and rapamycin-resistant (patients 2 and 12) samples
Excerpt: The lower and upper end of the box corresponds to the 25th and 75th percentile, respectively. The whiskers extend to the 95% range. The Wilcoxon nonparametric group comparison test was used to calculate p-values for the differences between different patient groups. […] The horizontal line inside the box indicates the median value. The lower and upper border of the box corresponds to the 25th and 75th percentile, respectively. The whiskers extend to the 95% range.

PTEN-null cell lines = tested on: PTEN-null cell lines; parameters: method as in PMID 11504908, PMID 11566616; details: PTEN-null cell lines in vitro; cited from earlier work
[3] = human, in vivo, cited from earlier work
[4] = cited from earlier work; for mucosal HERPES SIMPLEX infections, patients: phase III trial, with cyclosporine and corticosteroids, ref MacDonald et al, 2001

CO[C@H]1C[C@@H]2CC[C@@H](C)[C@@](O)(O2)C(=O)C(=O)N2CCCC[C@H]2C(=O)O[C@H]([C@H](C)C[C@@H]2CC[C@@H](O)[C@H](OC)C2)CC(=O)[C@H](C)/C=C(\C)[C@@H](O)[C@@H](OC)C(=O)[C@H](C)C[C@H](C)/C=C/C=C/C=C/1C [Rapamycin]
pPRAS 40 Induction (Akt; 2 mg oral daily): Yes
pPRAS 40 Induction (Akt; 5 mg oral daily): No and Yes
pPRAS 40 Induction (Akt; 10 mg oral daily): Yes and No
patients with statistically significant increase in PRAS40 phosphorylation in S2 sample (Akt; Seven of 14 patients, p < 0.05, Wilcoxon test): 50%
Ki-67 Decrease ([1]; 2 mg oral daily): Yes and No
Ki-67 Decrease ([1]; 5 mg oral daily): No and Yes
Ki-67 Decrease ([1]; 10 mg oral daily): Yes and No
patients with nearly complete inhibition (dramatic reduction) of tumor cell proliferation ([1]; Ki-67 staining after about 1 wk of rapamycin): seven of 14 and 7/14
S6 phosphorylation ex vivo [2]: inhibited equally
Rapamycin concentrations known to confer antiproliferative activity (PTEN-null cell lines): ~1 nM
Vdss ([3]; iv): 1.1 to 1.3 L/kg
half-life [3]: 40 to 60 h
ANEMIA, patients ([4]; human, in vivo): 27-37%
ARTHRALGIA ([4]; human, in vivo): 25-31%
CONSTIPATION ([4]; human, in vivo): 28-36%
DIARRHEA ([4]; human, in vivo): 25-42%
DYSPEPSIA ([4]; human, in vivo): 17-25%
DYSPNEA, patients ([4]; human, in vivo): 22-30%
EPISTAXIS, patients ([4]; human, in vivo): 9%
HEADACHE, patients ([4]; human, in vivo): 23-34%
HYPERTENSION, patients ([4]; human, in vivo): 43-45%
HYPOKALEMIA, patients ([4]; human, in vivo): 11-21%
HYPOPHOSPHATEMIA, patients ([4]; human, in vivo): 15-23%
Hyperlipidemia ([4]; human, in vivo): 38-57%
NAUSEA ([4]; human, in vivo): 25-36%
Normalization of platelet counts after discontinuation ([4]; human, in vivo): ≤ 2 weeks
Peripheral EDEMA, patients ([4]; human, in vivo): 54-64%
Posttransplant lymphoproliferative disease (PTLD) ([4]; human, in vivo): 0.8%
THROMBOCYTOPENIA, patients ([4]; human, in vivo): 13-30%
VOMITING ([4]; human, in vivo): 19-25%
arthralgia, patients ([4]; human, in vivo): 23%
hypercholesterolemia ([4]; human, in vivo): 38-46%
insomnia, patients ([4]; human, in vivo): 13-22%
patients with triglyceride levels exceeding 5 mmol/L ([4]; human, in vivo): 75%
total cholesterol mean peak ([4]; human, in vivo): 12 mmol/L
tremor, patients ([4]; human, in vivo): 21-31%
mucosal HERPES SIMPLEX infections, patients ([4]; sirolimus 2 mg/day): 10%
mucosal HERPES SIMPLEX infections, patients ([4]; sirolimus 5 milligrams (mg)/day): 19%
